Laboratory results: PubChem BioAssay (NCI)
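In this assay, cells in 96-well plates receive the compound at five concentrations for 48 hours. Endpoints are linearly interpolated between the surrounding concentrations. TGI marks complete inhibition of growth.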

What was measured:
Experiment in all cases: NCI tumour cell line growth inhibition, 48 h
COLO 205 colon = test system: COLO 205 colon
HCC-2998 colon = test system: HCC-2998 colon
SN12K1 renal = test system: SN12K1 renal
HOP-62 NSCLC = test system: HOP-62 NSCLC
EKVX NSCLC = test system: EKVX NSCLC
OVCAR-3 ovarian = test system: OVCAR-3 ovarian
RPMI-8226 leukemia = test system: RPMI-8226 leukemia
IGROV1 ovarian = test system: IGROV1 ovarian
LOX IMVI melanoma = test system: LOX IMVI melanoma
NCI-H23 lung = test system: NCI-H23 lung
SNB-19 CNS = test system: SNB-19 CNS
SK-MEL-5 melanoma = test system: SK-MEL-5 melanoma
SK-MEL-2 melanoma = test system: SK-MEL-2 melanoma
SW-620 colon = test system: SW-620 colon
MCF7 breast = test system: MCF7 breast
OVCAR-8 ovarian = test system: OVCAR-8 ovarian
HOP-92 NSCLC = test system: HOP-92 NSCLC
HL-60(TB) leukemia = test system: HL-60(TB) leukemia
A549 NSCLC = test system: A549 NSCLC
SNB-78 CNS = test system: SNB-78 CNS
NCI-H226 lung = test system: NCI-H226 lung
M19-MEL melanoma = test system: M19-MEL melanoma
MOLT-4 leukemia = test system: MOLT-4 leukemia
MALME-3M melanoma = test system: MALME-3M melanoma
P388/ADR leukemia = test system: P388/ADR leukemia
HCT-116 colon = test system: HCT-116 colon
P388 leukemia = test system: P388 leukemia
NCI-H522 lung = test system: NCI-H522 lung
NCI/ADR-RES ovarian = test system: NCI/ADR-RES ovarian
A498 renal = test system: A498 renal
UO-31 renal = test system: UO-31 renal
SNB-75 CNS = test system: SNB-75 CNS
U251 CNS = test system: U251 CNS
OVCAR-5 ovarian = test system: OVCAR-5 ovarian
DLD-1 colon = test system: DLD-1 colon
SK-OV-3 ovarian = test system: SK-OV-3 ovarian
HOP-18 NSCLC = test system: HOP-18 NSCLC
XF 498 CNS = test system: XF 498 CNS
UACC-62 melanoma = test system: UACC-62 melanoma
SF-295 CNS = test system: SF-295 CNS
CAKI-1 renal = test system: CAKI-1 renal
SF-539 CNS = test system: SF-539 CNS
UACC-257 melanoma = test system: UACC-257 melanoma
RXF 393 renal = test system: RXF 393 renal
SF-268 CNS = test system: SF-268 CNS
CCRF-CEM leukemia = test system: CCRF-CEM leukemia
NCI-H460 lung = test system: NCI-H460 lung
HT29 colon = test system: HT29 colon
SK-MEL-28 melanoma = test system: SK-MEL-28 melanoma
KM12 colon = test system: KM12 colon
K-562 leukemia = test system: K-562 leukemia
DMS 114 small cell lung = test system: DMS 114 small cell lung
DMS 273 small cell lung = test system: DMS 273 small cell lung
SN12C renal = test system: SN12C renal
HCT-15 colon = test system: HCT-15 colon
TK-10 renal = test system: TK-10 renal
ACHN renal = test system: ACHN renal
OVCAR-4 ovarian = test system: OVCAR-4 ovarian
786-0 renal = test system: 786-0 renal
LXFL 529 NSCLC = test system: LXFL 529 NSCLC
KM20L2 colon = test system: KM20L2 colon
M14 melanoma = test system: M14 melanoma
RXF-631 renal = test system: RXF-631 renal

## C#CCn1c(=O)c(C#N)c(O)c2cc3ccccc3nc21
COLO 205 colon
  TGI: > 100 µM
HCC-2998 colon
  TGI: > 100 µM
SN12K1 renal
  TGI: > 100 µM
HOP-62 NSCLC
  TGI: > 100 µM
EKVX NSCLC
  TGI: > 100 µM
OVCAR-3 ovarian
  TGI: > 100 µM
RPMI-8226 leukemia
  TGI: > 100 µM
IGROV1 ovarian
  TGI: > 100 µM
LOX IMVI melanoma
  TGI: > 100 µM
NCI-H23 lung
  TGI: > 100 µM
SNB-19 CNS
  TGI: > 100 µM
SK-MEL-5 melanoma
  TGI: > 100 µM
SK-MEL-2 melanoma
  TGI: > 100 µM
SW-620 colon
  TGI: > 100 µM
MCF7 breast
  TGI: > 100 µM
OVCAR-8 ovarian
  TGI: > 100 µM
HOP-92 NSCLC
  TGI: > 100 µM
HL-60(TB) leukemia
  TGI: > 100 µM
A549 NSCLC
  TGI: > 100 µM
SNB-78 CNS
  TGI: > 100 µM
NCI-H226 lung
  TGI: > 100 µM
M19-MEL melanoma
  TGI: > 100 µM
MOLT-4 leukemia
  TGI: > 100 µM
MALME-3M melanoma
  TGI: > 100 µM
P388/ADR leukemia
  TGI: > 100 µM
HCT-116 colon
  TGI: > 100 µM
P388 leukemia
  TGI: > 100 µM
NCI-H522 lung
  TGI: > 100 µM
NCI/ADR-RES ovarian
  TGI: > 100 µM
A498 renal
  TGI: > 100 µM
UO-31 renal
  TGI: > 100 µM
SNB-75 CNS
  TGI: > 100 µM
U251 CNS
  TGI: > 100 µM
OVCAR-5 ovarian
  TGI: > 100 µM
DLD-1 colon
  TGI: > 100 µM
SK-OV-3 ovarian
  TGI: > 100 µM
HOP-18 NSCLC
  TGI: > 100 µM
XF 498 CNS
  TGI: > 100 µM
UACC-62 melanoma
  TGI: > 100 µM
SF-295 CNS
  TGI: > 100 µM
CAKI-1 renal
  TGI: > 100 µM
SF-539 CNS
  TGI: > 100 µM
UACC-257 melanoma
  TGI: > 100 µM
RXF 393 renal
  TGI: > 100 µM
SF-268 CNS
  TGI: > 31.6 µM
CCRF-CEM leukemia
  TGI: > 100 µM
NCI-H460 lung
  TGI: > 100 µM
HT29 colon
  TGI: > 100 µM
SK-MEL-28 melanoma
  TGI: > 100 µM
KM12 colon
  TGI: > 100 µM
K-562 leukemia
  TGI: > 100 µM
DMS 114 small cell lung
  TGI: > 100 µM
DMS 273 small cell lung
  TGI: > 100 µM
SN12C renal
  TGI: > 100 µM
HCT-15 colon
  TGI: > 100 µM

## CCOC(=O)c1cc(/C=C/C(C)=C/C(=O)OC)n(C)c1C
COLO 205 colon
  TGI: > 100 µM
HCC-2998 colon
  TGI: > 100 µM
HOP-62 NSCLC
  TGI: > 100 µM
EKVX NSCLC
  TGI: > 100 µM
OVCAR-3 ovarian
  TGI: > 100 µM
RPMI-8226 leukemia
  TGI: > 100 µM
IGROV1 ovarian
  TGI: > 100 µM
LOX IMVI melanoma
  TGI: > 100 µM
NCI-H23 lung
  TGI: > 100 µM
SNB-19 CNS
  TGI: > 100 µM
SK-MEL-5 melanoma
  TGI: > 100 µM
SW-620 colon
  TGI: > 100 µM
OVCAR-8 ovarian
  TGI: > 100 µM
HOP-92 NSCLC
  TGI: > 100 µM
HL-60(TB) leukemia
  TGI: > 100 µM
A549 NSCLC
  TGI: > 100 µM
SNB-78 CNS
  TGI: > 100 µM
TK-10 renal
  TGI: > 100 µM
NCI-H226 lung
  TGI: > 100 µM
ACHN renal
  TGI: > 100 µM
M19-MEL melanoma
  TGI: > 100 µM
MOLT-4 leukemia
  TGI: > 100 µM
MALME-3M melanoma
  TGI: > 100 µM
NCI-H522 lung
  TGI: > 100 µM
A498 renal
  TGI: > 100 µM
UO-31 renal
  TGI: > 100 µM
OVCAR-4 ovarian
  TGI: > 100 µM
U251 CNS
  TGI: > 100 µM
OVCAR-5 ovarian
  TGI: > 100 µM
DLD-1 colon
  TGI: > 100 µM
SK-OV-3 ovarian
  TGI: > 100 µM
786-0 renal
  TGI: > 100 µM
XF 498 CNS
  TGI: > 100 µM
UACC-62 melanoma
  TGI: > 100 µM
LXFL 529 NSCLC
  TGI: > 100 µM
SF-295 CNS
  TGI: > 100 µM
CAKI-1 renal
  TGI: > 100 µM
SF-539 CNS
  TGI: > 100 µM
UACC-257 melanoma
  TGI: > 100 µM
SF-268 CNS
  TGI: > 100 µM
KM20L2 colon
  TGI: > 100 µM
CCRF-CEM leukemia
  TGI: > 100 µM
NCI-H460 lung
  TGI: > 100 µM
M14 melanoma
  TGI: > 100 µM
HT29 colon
  TGI: > 100 µM
RXF-631 renal
  TGI: > 100 µM
KM12 colon
  TGI: > 100 µM
K-562 leukemia
  TGI: > 100 µM
DMS 273 small cell lung
  TGI: > 100 µM
SN12C renal
  TGI: > 100 µM
HCT-15 colon
  TGI: > 100 µM
